Experimental data: ChEMBL document CHEMBL4052670, “The selective cytotoxicity of new triazene compounds to human melanoma cells” (Bioorg Med Chem, 2017)
pIC50: −log10 of the molar value.

Key:
[1] = Prodrug activation assessed as mushroom tyrosinase-mediated compound hydrolysis by measuring half life in presence of 300 U/ml of tyrosinase by HPLC analysis; settings: agaricus bisporus
B16-F10 = assay: Cytotoxicity against mouse B16F10 cells after 72 hrs by MTS assay; type: functional, cell-based; settings: B16-F10, 72 h
[2] = Prodrug activation assessed as mushroom tyrosinase-mediated compound hydrolysis by measuring Pseudo first-order rate constants in presence of 300 U/ml of tyrosinase by HPLC analysis; settings: agaricus bisporus
Mushroom tyrosinase [3] = biological target: T1, Mushroom tyrosinase (Agaricus bisporus, UniProt O42713+Q00024+C7FF04+C7FF05); assay: Drug metabolism assessed as mushroom tyrosinase-mediated compound hydrolysis by measuring retention time by HPLC method; type: ADME
[4] = Retention time of the compound in phosphate buffered saline at pH 7.4 by HPLC method
[5] = Half life in 80% human plasma by HPLC analysis; type: ADME, cell-free
[6] = Half life in phosphate buffered saline at pH 7.4 by HPLC analysis; type: physicochemical
[7] = Apparent partition coefficient, log P of the compound in 1-octanol/phosphate buffer at pH 7.4 measured after 30 mins by HPLC analysis; type: physicochemical; settings: read-out: LogD7.4
mushroom tyrosinase [8] = biological target: T2, mushroom tyrosinase (Agaricus bisporus, UniProt C7FF04+C7FF05+O42713+Q00024); assay: Drug metabolism assessed as mushroom tyrosinase-mediated compound consumption in presence of 300 U/ml of tyrosinase by HPLC method; type: ADME; settings: read-out: Drug metabolism
HaCaT = assay: Cytotoxicity against human HaCaT cells after 72 hrs by MTS assay; type: cell-based
[9] = Cytotoxicity against human MNT1 cells after 72 hrs by MTS assay; type: functional, cell-based; settings: MNT-1, 72 h
[10] = Half life in deuterated phosphate buffer at pH 7.8 by 1H-NMR spectra analysis; type: physicochemical
Plasma = assay: Retention time of the compound in 80% human plasma by HPLC method; type: ADME, cell-free
[11] = Prodrug activation assessed as mushroom tyrosinase-mediated compound hydrolysis by measuring Pseudo first-order rate constants in presence of 100 U/ml of tyrosinase by HPLC analysis; settings: agaricus bisporus
mushroom tyrosinase [12] = biological target: T2, mushroom tyrosinase; assay: Drug metabolism assessed as mushroom tyrosinase-mediated compound consumption in presence of 100 U/ml of tyrosinase by HPLC method; type: ADME; settings: read-out: Drug metabolism
[13] = Prodrug activation assessed as mushroom tyrosinase-mediated compound hydrolysis by measuring half life in presence of 100 U/ml of tyrosinase by HPLC analysis; settings: agaricus bisporus
[14] = Stability of the compound in phosphate buffered saline at pH 7.4 assessed as parent compound remaining measured after 8 days by HPLC analysis; type: physicochemical; settings: read-out: Stability
NCCc1ccc(O)c(O)c1 = assay: (§1) Substrate activity at mushroom tyrosinase monophenolase activity by spectrophotometry based Michaelis-Menten plot analysis; settings: Agaricus bisporus
O=C(O)Cc1ccc(O)cc1 = assay: as §1; settings: Agaricus bisporus
[15] = test system: N[C@@H](Cc1ccc(O)cc1)C(=O)O; assay: as §1; settings: Agaricus bisporus
Mushroom tyrosinase [16] = biological target: T1, Mushroom tyrosinase; assay: Ratio of Kcat to Km for mushroom tyrosinase-mediated compound oxidation; type: ADME
mushroom tyrosinase [17] = biological target: T2, mushroom tyrosinase; assay: (§2) Drug metabolism assessed as mushroom tyrosinase-mediated compound oxidation by Michaelis-Menten plot analysis; type: ADME; settings: mushroom tyrosinase
Mushroom tyrosinase [18] = biological target: T1, Mushroom tyrosinase; assay: as §2; type: ADME

Sequence of Mushroom tyrosinase (Agaricus bisporus) (C7FF05 whole entry, looked up): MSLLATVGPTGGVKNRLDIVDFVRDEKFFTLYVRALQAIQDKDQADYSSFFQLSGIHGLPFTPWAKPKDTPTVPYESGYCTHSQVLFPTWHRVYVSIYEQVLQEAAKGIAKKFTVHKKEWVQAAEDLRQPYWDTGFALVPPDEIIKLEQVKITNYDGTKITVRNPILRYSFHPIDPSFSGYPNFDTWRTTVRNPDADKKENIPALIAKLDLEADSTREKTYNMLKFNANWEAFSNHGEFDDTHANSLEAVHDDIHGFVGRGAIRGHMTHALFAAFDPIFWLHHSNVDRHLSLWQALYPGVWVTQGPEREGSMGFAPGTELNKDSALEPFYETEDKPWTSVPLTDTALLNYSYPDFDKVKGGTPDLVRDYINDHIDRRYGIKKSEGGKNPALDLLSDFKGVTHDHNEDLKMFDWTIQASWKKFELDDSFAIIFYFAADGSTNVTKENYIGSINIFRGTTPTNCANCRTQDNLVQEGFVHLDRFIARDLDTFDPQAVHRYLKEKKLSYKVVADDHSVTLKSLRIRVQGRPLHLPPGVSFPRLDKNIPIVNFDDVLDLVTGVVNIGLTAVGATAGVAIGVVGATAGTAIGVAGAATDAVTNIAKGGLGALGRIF
Sequence of Mushroom tyrosinase (Agaricus bisporus) (C7FF04 whole entry, looked up): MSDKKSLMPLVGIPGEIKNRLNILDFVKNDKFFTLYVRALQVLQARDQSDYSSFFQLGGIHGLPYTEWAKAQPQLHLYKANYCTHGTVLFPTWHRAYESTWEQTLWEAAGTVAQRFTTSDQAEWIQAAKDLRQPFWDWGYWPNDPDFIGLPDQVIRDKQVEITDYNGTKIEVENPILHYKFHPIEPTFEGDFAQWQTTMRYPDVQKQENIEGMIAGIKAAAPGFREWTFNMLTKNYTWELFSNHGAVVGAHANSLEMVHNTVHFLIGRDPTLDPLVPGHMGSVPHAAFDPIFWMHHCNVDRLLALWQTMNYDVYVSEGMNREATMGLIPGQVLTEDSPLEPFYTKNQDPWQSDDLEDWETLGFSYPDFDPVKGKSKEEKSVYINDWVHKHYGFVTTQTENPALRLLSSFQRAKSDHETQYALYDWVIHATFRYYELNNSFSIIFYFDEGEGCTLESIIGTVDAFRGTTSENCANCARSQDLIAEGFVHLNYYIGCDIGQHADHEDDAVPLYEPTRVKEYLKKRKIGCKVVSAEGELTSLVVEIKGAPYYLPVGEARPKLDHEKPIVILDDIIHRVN
Sequence of Mushroom tyrosinase (Agaricus bisporus) (Q00024 whole entry, looked up): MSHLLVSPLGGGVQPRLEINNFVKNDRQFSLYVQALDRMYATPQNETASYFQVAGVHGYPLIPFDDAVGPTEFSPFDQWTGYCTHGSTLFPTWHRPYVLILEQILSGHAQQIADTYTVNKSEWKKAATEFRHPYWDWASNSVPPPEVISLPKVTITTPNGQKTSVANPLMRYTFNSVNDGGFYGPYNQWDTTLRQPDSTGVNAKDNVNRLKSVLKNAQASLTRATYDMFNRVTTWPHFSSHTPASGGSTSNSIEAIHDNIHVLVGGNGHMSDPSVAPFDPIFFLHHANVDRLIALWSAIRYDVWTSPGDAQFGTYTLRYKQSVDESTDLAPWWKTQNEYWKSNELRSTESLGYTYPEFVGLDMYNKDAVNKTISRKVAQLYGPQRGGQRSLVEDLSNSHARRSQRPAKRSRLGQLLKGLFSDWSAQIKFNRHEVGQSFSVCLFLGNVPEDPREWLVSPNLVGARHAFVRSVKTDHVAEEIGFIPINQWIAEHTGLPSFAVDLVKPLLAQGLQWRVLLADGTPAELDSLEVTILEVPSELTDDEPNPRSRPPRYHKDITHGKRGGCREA
Sequence of Mushroom tyrosinase (Agaricus bisporus) (O42713 whole entry, looked up): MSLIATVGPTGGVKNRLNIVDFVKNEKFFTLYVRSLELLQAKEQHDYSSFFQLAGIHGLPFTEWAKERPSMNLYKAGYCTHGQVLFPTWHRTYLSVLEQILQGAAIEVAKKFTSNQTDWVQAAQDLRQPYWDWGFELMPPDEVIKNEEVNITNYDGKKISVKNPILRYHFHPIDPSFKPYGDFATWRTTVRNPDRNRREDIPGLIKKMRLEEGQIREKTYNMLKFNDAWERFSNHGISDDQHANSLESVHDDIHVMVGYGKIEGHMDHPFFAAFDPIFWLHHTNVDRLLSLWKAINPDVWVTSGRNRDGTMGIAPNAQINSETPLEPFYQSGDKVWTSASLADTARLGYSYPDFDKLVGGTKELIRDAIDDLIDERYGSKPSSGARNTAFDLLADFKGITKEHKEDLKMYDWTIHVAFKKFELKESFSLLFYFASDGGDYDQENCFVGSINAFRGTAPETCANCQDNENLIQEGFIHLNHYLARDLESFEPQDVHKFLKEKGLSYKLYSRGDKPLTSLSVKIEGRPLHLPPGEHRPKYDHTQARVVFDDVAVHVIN

Compound | pIC50 (B16-F10) | half-life [5] | half-life [6] | logD at 0.5 h [7] | pIC50 (HaCaT) | pIC50 [9] | half-life [10] | t1/2 [13] | also measured
COC(=O)c1ccc(/N=N/N(C)C(=O)CCc2cccc(O)c2)cc1 | < 4.12 | 7.8 h | 94.7 h | 3.42 | 3.82 to 4.12 | < 4.12 | – | – | t1/2 [1]: 21.17 h; K [2]: 9.1 ×10⁻⁶ /s; Retention_time (Mushroom tyrosinase [3]): 12.3 min; Retention time [4]: 12.5 min; metabolised (mushroom tyrosinase [8]): 97.5%
CCOc1nc(/N=N/N(C)C(=O)Oc2ccc([N+](=O)[O-])cc2)nc2[nH]cnc12 | – | – | – | – | – | – | 0.4 to 58.3 h | – | –
Nc1ccccc1 [ANILINE] | – | – | – | – | – | – | – | – | Retention_time (Plasma): 2 min; Retention time (Mushroom tyrosinase [3]): 2 to 2.1 min; Retention time [4]: 2.4 min
CC(=O)N(C)/N=N/c1nc(OCc2ccccc2)c2nc[nH]c2n1 | – | – | – | – | – | – | 22.1 to 58.3 h | – | –
CN(/N=N/c1nc(OCc2ccccc2)c2nc[nH]c2n1)C(=O)c1cccnc1 | – | – | – | – | – | – | 22.1 to 58.3 h | – | –
CN(/N=N/c1nc(OCc2ccccc2)c2nc[nH]c2n1)C(=O)c1ccc([N+](=O)[O-])cc1 | – | – | – | – | – | – | 22.1 to 58.3 h | – | –
Cn1nnc2c(C(N)=O)ncn2c1=O [TEMOZOLOMIDE] | < 4.12 | – | – | – | – | < 4.12 | – | – | –
CN(/N=N/c1ccc(C#N)cc1)C(=O)CCc1ccc(O)cc1 | < 4.12 | 5.8 h | 76 h | 3.4 | 3.82 to 4.12 | < 4.12 | – | 0.025 h | K [11]: 7.9 ×10⁻³ /s; metabolised (mushroom tyrosinase [12]): 100%
CN(/N=N/c1ccc(Br)cc1)C(=O)CCCCc1ccc(O)cc1 | 4.28 | 162 h | – | 4.32 | < 4.12 | 4.34 | – | 0.108 h | remaining at 192 h [14]: 100%
CC(=O)c1ccc(/N=N/N(C)C(=O)CCc2ccc(OC(=O)CCc3ccc(O)cc3)cc2)cc1 | – | – | – | – | – | – | – | 0.0917 h | K [11]: 2.1 ×10⁻³ /s
CN(/N=N/c1nc(OCc2ccccc2)c2nc[nH]c2n1)C(=O)Oc1ccc(C(N)=O)cc1 | – | – | – | – | – | – | 0.4 to 58.3 h | – | –
Mushroom tyrosinase (Agaricus bisporus) (from UniProt O42713+Q00024+C7FF04+C7FF05) | – | – | – | – | – | – | – | – | Km (NCCc1ccc(O)c(O)c1): 280 µM; Km (O=C(O)Cc1ccc(O)cc1): 1910 µM; Km [15]: 250 µM
CCOC(=O)c1ccc(/N=N/N(C)C(=O)CCCCc2ccc(O)cc2)cc1 | < 4.12 | 26.3 h | – | 4.5 | < 3.82 | < 4.12 | – | 0.08 h | remaining at 192 h [14]: 100%
Cc1ccc(/N=N/N(C)C(=O)CCCCc2ccc(O)cc2)cc1 | 4.24 | 79.7 h | – | 4 | < 3.82 | 4.19 | – | 0.0123 h | remaining at 192 h [14]: 100%
CN(/N=N/c1nc(OCc2ccccc2)c2nc[nH]c2n1)C(=O)c1ccccc1 | – | – | – | – | – | – | 22.1 to 58.3 h | – | –
CC(=O)Nc1ccc(OC(=O)N(C)/N=N/c2nc(OCc3ccccc3)c3nc[nH]c3n2)cc1 | – | – | – | – | – | – | 0.4 to 58.3 h | – | –
CCOc1nc(/N=N/N(C)C(=O)Oc2ccc(C(=O)OC)cc2)nc2[nH]cnc12 | – | – | – | – | – | – | 0.4 to 58.3 h | – | –
CCOC(=O)N(C)/N=N/c1nc(OCc2ccccc2)c2nc[nH]c2n1 | – | – | – | – | – | – | 0.4 to 58.3 h | – | –
COC(=O)c1ccc(/N=N/N(C)C(=O)CCCCc2ccc(O)cc2)cc1 | < 4.12 | 17.4 h | 124 h | 3.9 | 3.82 to 4.12 | < 4.12 | – | 0.06 h | Kcat/Km (Mushroom tyrosinase [16]): 13.88 M⁻¹ s⁻¹; Km (mushroom tyrosinase [17]): 1080 µM; Kcat (Mushroom tyrosinase [18]): 0.013 s⁻¹; Vmax (Mushroom tyrosinase [18]): 0.018 µM/min
CN(/N=N/c1ccc(C#N)cc1)C(=O)CCCCc1ccc(O)cc1 | < 4.12 | 11.8 h | 82.5 h | 4.3 | 3.82 to 4.12 | < 4.12 | – | 0.07 h | Retention_time (Mushroom tyrosinase [3]): 9.8 min; Kcat/Km (Mushroom tyrosinase [16]): 1.39 M⁻¹ s⁻¹; Km (mushroom tyrosinase [17]): 860 µM; Kcat (Mushroom tyrosinase [18]): 0.009 s⁻¹; Vmax (Mushroom tyrosinase [18]): 0.012 µM/min
CN(/N=N/c1ccc(C#N)cc1)C(=O)CCc1cccc(O)c1 | < 4.12 | 2.7 h | 60.1 h | 3.24 | 3.82 to 4.12 | < 4.12 | – | – | t1/2 [1]: 19.45 h; K [2]: 9.9 ×10⁻⁶ /s; Retention_time (Plasma): 8.8 min; metabolised (mushroom tyrosinase [8]): 91.1%
CN(/N=N/c1ccc(C(N)=O)cc1)C(=O)CCc1ccc(O)cc1 | < 4.12 | 48.5 h | 118 h | 2.8 | 3.82 to 4.12 | < 4.12 | – | 0.0767 to 0.077 h | K [11]: 2.5 ×10⁻³ /s; metabolised (mushroom tyrosinase [12]): 100%
CN(/N=N/c1nc(OCc2ccccc2)c2nc[nH]c2n1)C(=O)Oc1ccccc1 | – | – | – | – | – | – | 0.4 to 58.3 h | – | –
CN(/N=N/c1ccc(C#N)cc1)C(=O)Cc1ccc(O)cc1 | – | 1.48 h | 48 h | 2.99 | – | – | – | 0.467 to 0.468 h | –
CN(/N=N/c1ccc(C(N)=O)cc1)C(=O)CCCCc1ccc(O)cc1 | < 4.12 | 55.4 h | 182 h | 3.6 | 3.82 to 4.12 | < 4.12 | – | 0.0967 h | –
COC(=O)c1ccc(/N=N/N(C)C(=O)CCc2ccc(O)cc2)cc1 | < 4.12 | 7.3 h | 102 h | 3.23 | 3.82 to 4.12 | < 4.12 | – | 0.041 to 0.0417 h | K [11]: 4.7 ×10⁻³ /s; metabolised (mushroom tyrosinase [12]): 100%
CC(=O)c1ccc(/N=N/N(C)C(=O)CCCCc2ccc(O)cc2)cc1 | < 4.12 | 32.7 h | – | 4 | < 4.00 | < 4.12 | – | 0.0218 h | remaining at 192 h [14]: 100%
COC(=O)c1ccc(/N=N/N(C)C(=O)CCc2ccc(OC(=O)CCc3ccc(O)cc3)cc2)cc1 | – | – | – | – | – | – | – | 0.107 h | K [11]: 1.8 ×10⁻³ /s
CCOc1nc(/N=N/N(C)C(=O)Oc2ccc(S(N)(=O)=O)cc2)nc2[nH]cnc12 | – | – | – | – | – | – | 0.4 to 58.3 h | – | –
CC(=O)c1ccc(/N=N/N(C)C(=O)CCc2ccc(O)cc2)cc1 | < 4.12 | 14.6 h | 123 h | 3.05 | 3.82 to 4.12 | < 4.12 | – | 0.06 to 0.061 h | K [11]: 3.2 ×10⁻³ /s; metabolised (mushroom tyrosinase [12]): 100%
